Source: ChEMBL document CHEMBL4152284, “Novel tetrahydrocarbazole benzyl pyridine hybrids as potent and selective butryl cholinesterase inhibitors with neuroprotective and β-secretase inhibition activities” (Eur J Med Chem, 2018)

Key:
[1] = Selectivity index, ratio of IC50 for electric eel AChE to IC50 for equine serum BChE
Cholinesterase [2] = biological target: T1, Cholinesterase (Equus caballus, UniProt P81908); assay: Inhibition of equine serum BChE using butyrylthiocholine iodide as substrate preincubated for 10 mins followed by substrate addition measured for 6 mins by Ellman's method
T1 sequence (P81908 whole entry): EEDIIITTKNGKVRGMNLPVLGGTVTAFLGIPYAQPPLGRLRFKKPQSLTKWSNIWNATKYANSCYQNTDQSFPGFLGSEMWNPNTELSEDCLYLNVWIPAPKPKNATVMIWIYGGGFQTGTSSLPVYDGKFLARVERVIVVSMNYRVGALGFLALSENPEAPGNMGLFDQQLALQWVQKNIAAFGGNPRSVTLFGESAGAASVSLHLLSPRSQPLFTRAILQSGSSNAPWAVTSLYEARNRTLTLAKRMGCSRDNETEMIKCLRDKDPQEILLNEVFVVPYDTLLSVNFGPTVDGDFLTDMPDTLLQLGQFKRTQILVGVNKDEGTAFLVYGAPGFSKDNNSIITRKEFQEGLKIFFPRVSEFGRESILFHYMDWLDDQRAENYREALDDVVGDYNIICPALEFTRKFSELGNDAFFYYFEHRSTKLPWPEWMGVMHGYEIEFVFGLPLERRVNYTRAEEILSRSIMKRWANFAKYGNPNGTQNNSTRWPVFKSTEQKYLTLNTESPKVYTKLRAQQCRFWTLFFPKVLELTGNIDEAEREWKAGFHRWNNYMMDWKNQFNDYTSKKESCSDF

Acetylcholinesterase [3] = biological target: T2, Acetylcholinesterase (Electrophorus electricus, UniProt O42275); assay: Inhibition of electric eel AChE using acetylthiocholine iodide as substrate preincubated for 10 mins followed by substrate addition measured for 6 mins by Ellman's method
T2 sequence (O42275 whole entry): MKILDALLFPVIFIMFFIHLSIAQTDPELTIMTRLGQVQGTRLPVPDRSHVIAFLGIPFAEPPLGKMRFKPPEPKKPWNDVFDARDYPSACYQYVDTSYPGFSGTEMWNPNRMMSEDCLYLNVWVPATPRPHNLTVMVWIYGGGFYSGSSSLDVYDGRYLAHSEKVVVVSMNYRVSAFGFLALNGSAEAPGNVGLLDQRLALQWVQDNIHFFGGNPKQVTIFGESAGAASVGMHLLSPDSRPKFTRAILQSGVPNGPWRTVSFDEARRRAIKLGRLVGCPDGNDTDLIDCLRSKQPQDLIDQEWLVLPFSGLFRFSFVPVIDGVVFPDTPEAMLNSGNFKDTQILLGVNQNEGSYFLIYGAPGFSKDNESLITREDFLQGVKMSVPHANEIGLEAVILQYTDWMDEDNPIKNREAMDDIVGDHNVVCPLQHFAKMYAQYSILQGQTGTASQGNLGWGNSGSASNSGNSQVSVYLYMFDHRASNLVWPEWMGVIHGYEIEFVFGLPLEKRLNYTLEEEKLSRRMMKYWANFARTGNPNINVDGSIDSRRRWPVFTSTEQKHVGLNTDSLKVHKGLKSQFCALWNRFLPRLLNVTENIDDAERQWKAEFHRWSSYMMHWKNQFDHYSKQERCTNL

[4] = Selectivity index, ratio of IC50 for Torpedo californica AChE to IC50 for equine serum BChE
Cholinesterase [5] = biological target: T1, Cholinesterase; assay: Inhibition of equine serum BChE using butyrylthiocholine iodide as substrate preincubated for 10 mins followed by substrate addition measured for 5 mins by Ellman's method
Acetylcholinesterase [6] = biological target: T3, Acetylcholinesterase (Torpedo californica, UniProt P04058); assay: Inhibition of Torpedo californica AChE using acetylthiocholine iodide as substrate preincubated for 10 mins followed by substrate addition measured for 5 mins by Ellman's method; format: single protein, Tetronarce californica
T3 sequence (P04058 whole entry): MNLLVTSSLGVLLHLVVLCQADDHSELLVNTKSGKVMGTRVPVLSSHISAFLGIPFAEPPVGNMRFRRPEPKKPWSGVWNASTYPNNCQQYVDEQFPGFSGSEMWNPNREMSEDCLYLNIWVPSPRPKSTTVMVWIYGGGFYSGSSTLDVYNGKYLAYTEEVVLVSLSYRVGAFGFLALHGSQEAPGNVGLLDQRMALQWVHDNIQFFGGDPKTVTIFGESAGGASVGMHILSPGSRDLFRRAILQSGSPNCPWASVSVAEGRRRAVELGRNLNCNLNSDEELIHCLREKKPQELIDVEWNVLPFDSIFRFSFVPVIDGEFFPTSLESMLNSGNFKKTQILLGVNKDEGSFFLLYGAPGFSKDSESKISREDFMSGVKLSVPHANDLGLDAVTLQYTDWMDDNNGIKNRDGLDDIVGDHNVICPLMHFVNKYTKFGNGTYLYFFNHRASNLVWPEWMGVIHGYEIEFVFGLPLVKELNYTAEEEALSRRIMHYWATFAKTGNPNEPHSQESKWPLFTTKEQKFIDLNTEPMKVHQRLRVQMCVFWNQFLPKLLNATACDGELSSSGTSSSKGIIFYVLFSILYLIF

Cholinesterase [7] = biological target: T1, Cholinesterase; assay: Inhibition of equine serum BChE using butyrylthiocholine iodide as substrate preincubated for 15 mins followed by substrate addition by Ellman's method
Acetylcholinesterase [8] = biological target: T3, Acetylcholinesterase; assay: Inhibition of Torpedo californica AChE using acetylthiocholine iodide as substrate preincubated for 15 mins followed by substrate addition by Ellman's method; design: species or system Tetronarce californica
Acetylcholinesterase [9] = biological target: T2, Acetylcholinesterase; assay: Inhibition of electric eel AChE using acetylthiocholine iodide as substrate preincubated for 15 mins followed by substrate addition measured after 15 mins by Ellman's method
Cholinesterase [10] = biological target: T1, Cholinesterase; assay: Inhibition of equine serum BChE using butyrylthiocholine iodide as substrate preincubated for 15 mins followed by substrate addition measured after 15 mins by Ellman's method
[11] = biological target: Cholinesterase (Equus caballus) (UniProt P81908); assay: Potency index, ratio of donepezil IC50 to test compound IC50 for equine serum BChE
Cholinesterase (Equus caballus), sequence (P81908 whole entry, the tested form may be a part): as the sequence (P81908 whole entry) above

[12] = biological target: Beta-secretase 1 (Homo sapiens) (UniProt P56817); assay: Inhibition of recombinant human BACE1 (1 to 460 residues) expressed in baculovirus-infected insect cells at 50 uM using Rh-EVNLDAEFK-quencher as substrate measured after 90 mins by fluorescence assay relative to control
Beta-secretase 1 (Homo sapiens), sequence (P56817 whole entry, the tested form may be a part): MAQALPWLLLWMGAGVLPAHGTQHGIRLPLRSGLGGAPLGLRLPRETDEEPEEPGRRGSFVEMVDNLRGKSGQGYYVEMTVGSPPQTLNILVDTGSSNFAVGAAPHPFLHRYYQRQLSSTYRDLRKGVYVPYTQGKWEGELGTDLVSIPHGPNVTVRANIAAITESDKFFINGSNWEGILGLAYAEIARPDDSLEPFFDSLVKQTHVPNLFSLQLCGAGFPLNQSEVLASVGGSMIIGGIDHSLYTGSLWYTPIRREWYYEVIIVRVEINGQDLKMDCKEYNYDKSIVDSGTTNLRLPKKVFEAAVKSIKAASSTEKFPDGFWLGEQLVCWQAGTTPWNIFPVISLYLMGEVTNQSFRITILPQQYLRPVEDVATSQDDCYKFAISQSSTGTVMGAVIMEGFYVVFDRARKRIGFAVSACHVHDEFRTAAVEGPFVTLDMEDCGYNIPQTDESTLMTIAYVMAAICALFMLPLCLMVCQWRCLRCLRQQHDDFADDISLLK

[13] = biological target: Cholinesterase (Homo sapiens) (UniProt P06276); assay: Inhibition of human BchE (unknown origin)-induced amyloid beta (1 to 42) aggregation at 10 uM after 48 hrs by thioflavin T fluorescence method relative to control
Cholinesterase (Homo sapiens), sequence (P06276 whole entry, the tested form may be a part): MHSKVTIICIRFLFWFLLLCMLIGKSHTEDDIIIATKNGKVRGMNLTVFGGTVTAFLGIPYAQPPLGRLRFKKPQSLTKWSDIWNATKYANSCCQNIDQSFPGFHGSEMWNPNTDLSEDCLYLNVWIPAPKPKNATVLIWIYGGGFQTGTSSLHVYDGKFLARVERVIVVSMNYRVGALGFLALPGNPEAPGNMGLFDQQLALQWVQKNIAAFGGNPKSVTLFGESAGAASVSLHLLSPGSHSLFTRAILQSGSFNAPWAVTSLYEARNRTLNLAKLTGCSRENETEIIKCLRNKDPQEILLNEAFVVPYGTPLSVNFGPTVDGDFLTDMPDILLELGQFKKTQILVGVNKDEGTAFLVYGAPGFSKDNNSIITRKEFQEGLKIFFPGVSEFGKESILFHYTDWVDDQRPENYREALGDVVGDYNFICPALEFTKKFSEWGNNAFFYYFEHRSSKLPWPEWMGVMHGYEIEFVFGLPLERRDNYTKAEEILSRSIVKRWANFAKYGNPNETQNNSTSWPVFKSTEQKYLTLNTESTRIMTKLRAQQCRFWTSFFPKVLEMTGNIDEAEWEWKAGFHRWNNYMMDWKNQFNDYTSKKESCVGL

[14] = biological target: Beta-secretase 1 (Homo sapiens) (UniProt P56817); assay: Inhibition of recombinant human BACE1 (1 to 460 residues) expressed in baculovirus-infected insect cells at 10 uM using Rh-EVNLDAEFK-quencher as substrate measured after 90 mins by fluorescence assay relative to control
Cholinesterase [15] = biological target: T1, Cholinesterase; assay: Mixed-type inhibition of equine serum BChE using varying levels of butyrylthiocholine iodide as substrate by Lineweaver-burk plot analysis
PC-12 = assay: Neuroprotective activity against H2O2-induced cell death in rat PC12 cells assessed as cell viability at 10 uM pretreated for 3 hrs followed by H2O2 addition and measured after 12 hrs by MTT assay relative to control; format: functional; conditions: read-out: Activity
[16] = biological target: Amyloid-beta precursor protein (Homo sapiens) (UniProt P05067); assay: Inhibition of HFIP-pretreated amyloid beta (1 to 42) (unknown origin) self-induced aggregation at 10 uM after 48 hrs by thioflavin-T fluorescence assay relative to control
Amyloid-beta precursor protein (Homo sapiens), sequence (P05067 whole entry): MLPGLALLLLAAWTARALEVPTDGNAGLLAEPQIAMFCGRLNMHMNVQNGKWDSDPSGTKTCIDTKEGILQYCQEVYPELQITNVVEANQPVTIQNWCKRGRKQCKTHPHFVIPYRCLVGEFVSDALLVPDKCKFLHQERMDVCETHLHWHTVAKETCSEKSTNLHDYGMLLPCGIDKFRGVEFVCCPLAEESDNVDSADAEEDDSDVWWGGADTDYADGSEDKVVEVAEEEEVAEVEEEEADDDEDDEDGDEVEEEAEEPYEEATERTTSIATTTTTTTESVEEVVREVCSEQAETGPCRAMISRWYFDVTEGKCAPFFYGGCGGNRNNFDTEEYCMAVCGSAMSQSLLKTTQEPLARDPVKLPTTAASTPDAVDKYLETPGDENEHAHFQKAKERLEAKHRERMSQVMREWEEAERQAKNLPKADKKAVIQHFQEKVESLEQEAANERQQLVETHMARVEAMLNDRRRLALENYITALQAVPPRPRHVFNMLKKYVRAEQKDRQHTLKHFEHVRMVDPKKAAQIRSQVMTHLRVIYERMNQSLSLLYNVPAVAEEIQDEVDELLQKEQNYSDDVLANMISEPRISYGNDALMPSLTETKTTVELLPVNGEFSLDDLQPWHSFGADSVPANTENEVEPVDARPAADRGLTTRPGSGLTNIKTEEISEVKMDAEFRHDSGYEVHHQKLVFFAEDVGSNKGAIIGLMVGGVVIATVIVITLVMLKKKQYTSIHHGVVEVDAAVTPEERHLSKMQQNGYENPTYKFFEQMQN

In the case of `O=C1Nc2ccccc2/C1=C\c1cc[n+](Cc2ccccc2Cl)cc1`, the Ratio IC50 [1] is reported as 3110, the IC50 (Cholinesterase [2]) is reported as 1370 µM and the IC50 (Acetylcholinesterase [3]) is reported as 0.0004 µM.

`Cc1cccc(C[n+]2cccc(Cn3c4c(c5ccccc53)CCCC4)c2)c1` gave a Ratio IC50 [4] of 153, an IC50 (Cholinesterase [5]) of 0.11 µM and an IC50 (Acetylcholinesterase [6]) of 16.8 µM.

With `Cc1ccccc1C[n+]1ccc(Cn2c3c(c4ccccc42)CCCC3)cc1` the Ratio IC50 [4] was 21, the IC50 (Cholinesterase [5]) was 0.4 µM and the IC50 (Acetylcholinesterase [6]) was 8.4 µM.

In the case of `Clc1ccccc1C[n+]1ccc(Cn2c3c(c4ccccc42)CCCC3)cc1`, the Ratio IC50 [4] is reported as 22.4, the IC50 (Cholinesterase [5]) is reported as 0.29 µM and the IC50 (Acetylcholinesterase [6]) is reported as 6.5 µM.

With `Clc1cccc(C[n+]2ccc(Cn3c4c(c5ccccc53)CCCC4)cc2)c1` the Ratio IC50 [4] was 18.5, the IC50 (Cholinesterase [5]) was 0.26 µM and the IC50 (Acetylcholinesterase [6]) was 4.8 µM.

Work on `Fc1ccc(C[n+]2ccc(Cn3c4c(c5ccccc53)CCCC4)cc2)cc1` yielded a Ratio IC50 [4] of 44.9, an IC50 (Cholinesterase [5]) of 0.73 µM and an IC50 (Acetylcholinesterase [6]) of 32.8 µM.

In the case of `Cc1ccccc1C[n+]1cccc(Cn2c3c(c4ccccc42)CCCC3)c1`, the Ratio IC50 [4] is reported as 124, the IC50 (Cholinesterase [5]) is reported as 0.38 µM and the IC50 (Acetylcholinesterase [6]) is reported as 47 µM.

In the case of `c1ccc(C[n+]2cccc(Cn3c4c(c5ccccc53)CCCC4)c2)cc1`, the Ratio IC50 [4] is reported as 126, the IC50 (Cholinesterase [5]) is reported as 0.38 µM and the IC50 (Acetylcholinesterase [6]) is reported as 48.1 µM.

`c1ccc(C[n+]2ccc(Cn3c4c(c5ccccc53)CCCC4)cc2)cc1` gave a Ratio IC50 [4] of 62.6, an IC50 (Cholinesterase [5]) of 0.48 µM and an IC50 (Acetylcholinesterase [6]) of 30 µM.

With `Clc1ccc(C[n+]2cccc(Cn3c4c(c5ccccc53)CCCC4)c2)cc1` the Ratio IC50 [4] was 124, the IC50 (Cholinesterase [5]) was 0.22 µM and the IC50 (Acetylcholinesterase [6]) was 27.3 µM.

`Fc1ccc(C[n+]2cccc(Cn3c4c(c5ccccc53)CCCC4)c2)cc1` gave a Ratio IC50 [4] of 138, an IC50 (Cholinesterase [5]) of 0.52 µM and an IC50 (Acetylcholinesterase [6]) of 71.7 µM.

Work on `Clc1ccccc1C[n+]1cccc(Cn2c3c(c4ccccc42)CCCC3)c1` yielded a Ratio IC50 [4] of 180, an IC50 (Cholinesterase [5]) of 0.2 µM and an IC50 (Acetylcholinesterase [6]) of 36.1 µM.

In the case of `Clc1ccc(C[n+]2ccc(Cn3c4c(c5ccccc53)CCCC4)cc2)cc1`, the Ratio IC50 [4] is reported as 12.2, the IC50 (Cholinesterase [5]) is reported as 2.1 µM and the IC50 (Acetylcholinesterase [6]) is reported as 25.6 µM.

With `Clc1cccc(C[n+]2cccc(Cn3c4c(c5ccccc53)CCCC4)c2)c1` the Ratio IC50 [4] was 120, the IC50 (Cholinesterase [5]) was 0.25 µM and the IC50 (Acetylcholinesterase [6]) was 30 µM.

In the case of `Cc1ccc(C[n+]2ccc(Cn3c4c(c5ccccc53)CCCC4)cc2)cc1`, the Ratio IC50 [4] is reported as 20, the IC50 (Cholinesterase [5]) is reported as 0.7 µM and the IC50 (Acetylcholinesterase [6]) is reported as 14 µM.

Molecule `O=C1c2ccccc2C(=O)N1Cc1cc[n+](Cc2ccccc2F)cc1` has an IC50 (Cholinesterase [7]) of 8.71 µM, a Ratio IC50 [4] of 11.3 and an IC50 (Acetylcholinesterase [8]) of 0.77 µM.

For `Fc1ccccc1C[n+]1ccc(Cn2c3c(c4ccccc42)CCCC3)cc1`, the Ratio IC50 [4] was 47.6, the IC50 (Cholinesterase [5]) was 0.63 µM and the IC50 (Acetylcholinesterase [6]) was 30 µM.

`O=C(NCc1cc[n+](Cc2cccc(F)c2)cc1)c1cc2ccccc2oc1=O` showed a Ratio IC50 [1] of 0.83, an IC50 (Acetylcholinesterase [9]) of 10.1 µM and an IC50 (Cholinesterase [10]) of 12.2 µM.

In the case of `Cc1cccc(C[n+]2ccc(Cn3c4c(c5ccccc53)CCCC4)cc2)c1`, the Ratio IC50 [4] is reported as 21.2, the IC50 (Cholinesterase [5]) is reported as 0.24 µM and the IC50 (Acetylcholinesterase [6]) is reported as 5.1 µM.

`Fc1cccc(C[n+]2cccc(Cn3c4c(c5ccccc53)CCCC4)c2)c1` showed a Ratio IC50 [4] of 138, an IC50 (Cholinesterase [5]) of 0.56 µM and an IC50 (Acetylcholinesterase [6]) of 77.1 µM.

Molecule `Cc1ccc(C[n+]2cccc(Cn3c4c(c5ccccc53)CCCC4)c2)cc1` has a Ratio IC50 [11] of 3.97, an inhibition [12] of 30% and an inhibition [13] of 51.8%. It also gave an inhibition [14] of 10%, a Ratio IC50 [4] of 181 and a Ki (Cholinesterase [15]) of 0.09 µM. The IC50 (Cholinesterase [5]) was 0.088 µM, the viability at 10 µM (PC-12) was 65% and the inhibition [16] was 55.7%. It also gave an IC50 (Acetylcholinesterase [6]) of 15.9 µM.

In the case of `O=C1CCC(=O)N1Cc1cc[n+](Cc2cccc(F)c2)cc1`, the IC50 (Cholinesterase [7]) is reported as 45.6 µM, the Ratio IC50 [4] is reported as 6.34 and the IC50 (Acetylcholinesterase [8]) is reported as 7.19 µM.

In the case of `Fc1cccc(C[n+]2ccc(Cn3c4c(c5ccccc53)CCCC4)cc2)c1`, the Ratio IC50 [4] is reported as 35, the IC50 (Cholinesterase [5]) is reported as 0.98 µM and the IC50 (Acetylcholinesterase [6]) is reported as 34.3 µM.

`Fc1ccccc1C[n+]1cccc(Cn2c3c(c4ccccc42)CCCC3)c1` showed a Ratio IC50 [4] of 133, an IC50 (Cholinesterase [5]) of 0.51 µM and an IC50 (Acetylcholinesterase [6]) of 67.7 µM.
